Laboratory results: patent EP0662975B1, “2-SUBSTITUTED ADENOSINES WITH A-2 RECEPTOR AFFINITY” (priority 1992, dated 1994)

Tests used:
[1] = target: T1, Adenosine A-1 receptor (Rattus norvegicus, UniProt P25099); assay: Test for affinity for brain adenosine A-1 receptor binding sites ([3H]cyclohexyladenosine competition); settings: rat brain membranes, [3H]cyclohexyladenosine 0.8 nM
T1 construct: the membranes are isolated from whole animal brains; from tissue; host or cells: whole brain membranes of male Sprague-Dawley rats
T1 sequence (P25099 1-326): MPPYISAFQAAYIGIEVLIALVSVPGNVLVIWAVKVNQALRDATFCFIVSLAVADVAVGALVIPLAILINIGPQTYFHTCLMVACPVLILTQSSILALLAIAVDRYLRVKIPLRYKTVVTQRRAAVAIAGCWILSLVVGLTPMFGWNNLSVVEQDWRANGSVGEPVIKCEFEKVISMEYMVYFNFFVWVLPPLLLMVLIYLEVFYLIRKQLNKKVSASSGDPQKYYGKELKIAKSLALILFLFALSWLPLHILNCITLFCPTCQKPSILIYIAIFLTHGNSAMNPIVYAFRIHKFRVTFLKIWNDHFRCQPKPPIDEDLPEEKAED
Description: The test described below is used to determine the potency of test compounds to compete with the ligand […] for he Adenosine A-1 receptor prepared from rat brain membranes. Male Sprague-Dawley rats are sacrificed by decapitation and the membranes are isolated from whole animal brains. (See R. Goodman, M. Cooper. M. Gavish, and S. Synder, Guanine Nucleotide and Cation Regulation of the Binding of [3H]Diethylphenylxanthine to Adenosine A-1 Receptors in Brain Membrane, Molecular Pharmacology, 21, 329-335 (1982).
Membranes are homogenized (using polytron setting 7 for 10 seconds) in 25 volumes of ice-cold 50 mM Tris-HCl buffer, pH 7.7. […]
The incubation tubes, in triplicate, receive 100 µl of [3H]cyclohexyladenosine, 0.8 nM in the assay, 200 µl of test compounds at various concentrations over the range of 10^-10 M to 10^-6 M diluted with […] Tris-HCl buffer (pH 7.7), 0.2 ml of membrane suspension (8 mg wet weight) and in a final volume of 2 ml with Tris buffer. […] The filters are counted by liquid scintillation spectrometry in 8 ml of Omniflour containing 5% Protosol.
Specific binding of [3H]cyclohexyladenosine is measured as the excess over blanks taken in the presence of 10^-5 M 2-chloroadenosine. Total membrane-bound radioactivity is about 5% of that added to the test tubes. […] Protein content of the membrane suspension is determined by the method of Lowry, et al., Ibid, 265. […]

[2] = target: T2, adenosine A-2 receptors (Rattus norvegicus, UniProt P30543); assay: Test for affinity for brain adenosine A-2 receptors ([3H]NECA competition, striatal membranes); type: binding; settings: for Ki: rat brain striatum membranes, [3H]NECA, read-out: A-2 Receptor Ki; for A-1 Ki/A-2 Ki: ratio of A-1 Ki to A-2 Ki (selectivity)
T2 construct: from tissue; host or cells: striatal membranes of young male C-D rats (Charles River)
T2 sequence (P30543 whole entry): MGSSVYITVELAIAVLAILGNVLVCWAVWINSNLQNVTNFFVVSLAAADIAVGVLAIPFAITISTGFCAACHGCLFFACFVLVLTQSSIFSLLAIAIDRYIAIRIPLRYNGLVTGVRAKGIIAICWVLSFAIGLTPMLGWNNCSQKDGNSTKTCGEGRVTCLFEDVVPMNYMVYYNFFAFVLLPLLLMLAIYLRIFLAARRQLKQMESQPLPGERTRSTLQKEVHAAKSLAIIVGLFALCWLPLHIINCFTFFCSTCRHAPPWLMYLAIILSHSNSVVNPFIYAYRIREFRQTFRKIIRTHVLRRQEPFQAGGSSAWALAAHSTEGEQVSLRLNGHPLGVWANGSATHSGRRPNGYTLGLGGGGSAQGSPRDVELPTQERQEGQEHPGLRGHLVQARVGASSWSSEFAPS
Description: The test described below was used to determine the potency of test compounds to compete with the ligand [3H]-5'-N-ethyl-carboxamidoadenosine (NECA) for the adenosine A-2 receptors prepared from animal brain membranes. (See also R.R. Bruns, G.H. Lu, and T.A. […] Pharmacol., 29, 331-346 (1986).) Young male rats (C-D strain), obtained from Charles River, are killed by decapitation and the brains are removed. Membranes for ligand binding are isolated from rat brain striatum. The tissue is homogenized in 20 vol ice-cold 50 mM Tris-HCl buffer (pH 7.7) using a polytron (setting for 6 to 20 seconds). The homogenate is centrifuged at 50,000 x g for 10 minutes at 4°C. The pellet is again homogenized in a polytron in 20 vol of buffer, and centrifuged as before. The pellet is finally resuspended in 40 vol of 50 mM Tris-HCl (pH 7.7) per gram of original wet weight of tissue. […] Incubations are carried out at 25°C for 60 minutes. Each tube is filtered through GF/B glass fiber filters using a vacuum. The filters are rinsed two times with 5 ml of the ice-cold buffer. The membranes on the filters are transferred to scintillation vials to which 8 ml of Omnifluor with 5% Protosol is added. The filters are counted by liquid scintillation spectrometry. Specific binding of [3H]NECA is measured as the excess over blanks run in the presence of 100 µM 2-chloroadenosine. Total membrane-bound radioactivity is about 2.5% of that added to the test tubes. […] Specific binding to membranes is about 50% of the total bound. Protein content of the membrane suspension is determined by the method of O.H. Lowry, N.J. Rosebrough, A.L. Farr and R.J. Randall, Protein Measurements With Folin Phenol Reagent, J. Biol. Chem., 193, 265-275 (1951).

[3] = target: A-2 receptor; settings: rat brain slice assay; cited from earlier work

SMILES	Ki [1]	Ki [2]	A-1 Ki/A-2 Ki [2]	Ki [3]
C[C@@H](Cc1ccccc1)Nc1nc(N)c2ncn([C@@H]3O[C@H](CO)[C@@H](O)[C@H]3O)c2n1 [Compound 2, (S)-2-[(phenylisopropyl)amino]adenosine]	5800 nM	158 nM	37	–
C[C@H](Cc1ccccc1)Nc1nc(N)c2ncn([C@@H]3O[C@H](CO)[C@@H](O)[C@H]3O)c2n1 [Compound 1, (R)-2-[(phenylisopropyl)amino]adenosine]	8400 nM	3.5 nM	2400	–
CCCn1c(=O)c2[nH]c(-c3ccc(OCC(=O)O)cc3)nc2n(CCC)c1=O [XCC, carboxylic acid congener of 8-phenyl-1,3-dipropylxanthine]	–	–	–	34 ± 13 nM
